Literature values as cited in patent US20220202698A1, “EXTENDED RELEASE PHARMACEUTICAL COMPOSITIONS OF RIOCIGUAT” (Jubilant Pharma Holdings Inc., priority 2020, published 2022).

Legend:
[1] = human, in vivo
[2] = BCS classification

## COC(=O)N(C)c1c(N)nc(-c2nn(Cc3ccccc3F)c3ncccc23)nc1N [Riociguat, methyl 4,6-diamino-2-[1-(2-fluorobenzyl)-1H-pyrazolo[3,4-b]pyridin-3-yl]-5-pyrimidinyl(methyl)carbamate]
[1]
  Elimination half-life: about 12 hours
[2]
  Solubility: low solubility
